Measurements as given in paper PMC3089805 (Chemmedchem, 2010).
≈ marks a conversion by molar mass, not a printed value. Marks after values point to notes of the source that are not given here.

Columns and labels:
[1] = system: H. pylori strain 26695; test: MIC determination, liquid microdilution, H. pylori; format: cell-based; conditions: Helicobacter pylori, 26695, 27 h, read-out: MIC H. pylori
[2] = system: C. jejuni strain H840; test: MIC determination, liquid microdilution, C. jejuni; format: cell-based; conditions: Campylobacter jejuni, H840, 27 h, read-out: MIC C. jejuni
[3] = system: H. pylori PFOR enzyme; test: Direct PFOR enzyme assay; format: biochemical; conditions: [Drug] = 40 μM
[4] = system: C. difficile VPI 10463; test: MIC determination, agar dilution, C. difficile; format: cell-based, Clostridium difficile; conditions: Clostridioides difficile, VPI10463, 18 h, read-out: MIC C. difficile
[5] = Human foreskin cell toxicity; format: cell-based; conditions: human
[6] = system: S. aureus (MRSA); test: MIC determination, liquid microdilution, S. aureus; format: cell-based; conditions: Staphylococcus aureus, read-out: MIC S. aureus (MRSA)
[7] = system: S. epidermidis; test: MIC determination, liquid microdilution, S. epidermidis; format: cell-based; conditions: Staphylococcus epidermidis, read-out: MIC S. epidermidis

| MIC [1] | MIC [2] | PFOR Inhibition [3] | MIC [4] | MIC [6] | MIC [7] | SMILES | CC50 at 48 h ([5]; human foreskin cells) | CC50 at 48 h [5] |
| --- | --- | --- | --- | --- | --- | --- | --- | --- |
|  |  | 61 ± 13% | 2.8 µM (≈ 0.751 µg/mL) | 119 µM (≈ 32 µg/mL) | 119 µM (≈ 32 µg/mL) | O=C(Nc1ncc([N+](=O)[O-])s1)c1cccnc1F [Analogue 59, 2-Fluoro-N-(5-nitrothiazol-2-yl)nicotinamide] | > 59.7 µM |  |
| 0.7 µM (≈ 0.179 µg/mL) | 5.9 µM (≈ 1.51 µg/mL) | 58.5 ± 3.5 ^b % | 2.9 µM (≈ 0.74 µg/mL) | 23.5 µM (≈ 6 µg/mL) | 15.7 µM (≈ 4.01 µg/mL) | O=C(Nc1ncc([N+](=O)[O-])s1)c1ccsc1 [Analogue 74, N-(5-Nitrothiazol-2-yl)thiophene-3-carboxamide] | > 62.7 µM |  |
|  |  | 58 ± 2 ^b % | 1.7 µM (≈ 0.407 µg/mL) |  | 33.4 µM (≈ 7.99 µg/mL) | O=C(Nc1ncc([N+](=O)[O-])s1)c1ccoc1 [Analogue 60, N-(5-Nitrothiazol-2-yl)furan-3-carboxamide] | > 66.9 µM |  |
| 1 µM (≈ 0.358 µg/mL) | 5.6 µM (≈ 2 µg/mL) |  |  | 2.1 µM (≈ 0.751 µg/mL) | 5.6 µM (≈ 2 µg/mL) | O=C(Nc1ncc([N+](=O)[O-])s1)c1sc2cc(F)ccc2c1Cl [Analogue 86, 3-Chloro-6-fluoro-N-(5-nitrothiazol-2-yl)benzo[b]thiophene-2-carboxamide] | 33.5 µM |  |
| 1 µM (≈ 0.239 µg/mL) | 8.4 µM (≈ 2.01 µg/mL) | 42 ^b % | 2.4 µM (≈ 0.574 µg/mL) | 50.2 µM (≈ 12 µg/mL) | 66.9 µM (≈ 16 µg/mL) | O=C(Nc1ncc([N+](=O)[O-])s1)c1ccco1 [Analogue 61, N-(5-Nitrothiazol-2-yl)furan-2-carboxamide] | 66.9 µM |  |
| 1.1 µM (≈ 0.422 µg/mL) | 8.5 µM (≈ 3.26 µg/mL) |  |  | 11.4 µM (≈ 4.37 µg/mL) | 5.7 µM (≈ 2.18 µg/mL) | O=C(Nc1ncc([N+](=O)[O-])s1)c1ccc(-c2cccc(C(F)(F)F)c2)o1 [Analogue 68, N-(5-Nitrothiazol-2-yl)-5-(3-(trifluoromethyl)phenyl)furan-2-carboxamide] | > 41.7 µM |  |
|  |  | 56 ± 6 ^b % | 1.5 µM (≈ 0.383 µg/mL) |  | 31.3 µM (≈ 7.99 µg/mL) | O=C(Nc1ncc([N+](=O)[O-])s1)c1cccs1 [Analogue 76, N-(5-Nitrothiazol-2-yl)thiophene-2-carboxamide] | > 62.7 µM |  |
| 1.5 µM (≈ 0.497 µg/mL) | 72.4 µM (≈ 24 µg/mL) |  |  |  |  | O=C(Nc1ncc([N+](=O)[O-])s1)c1ccc(-c2ccccc2)s1 [Analogue 80, N-(5-Nitrothiazol-2-yl)-5-phenylthiophene-2-carboxamide] |  |  |
| 2.5 µM (≈ 0.763 µg/mL) | 9.8 µM (≈ 2.99 µg/mL) |  |  | 6.6 µM (≈ 2.02 µg/mL) | 13.1 µM (≈ 4 µg/mL) | O=C(Nc1ncc([N+](=O)[O-])s1)c1cc2ccccc2s1 [Analogue 84, N-(5-Nitrothiazol-2-yl)benzo[b]thiophene-2-carboxamide] | > 52.6 µM |  |
| 7.8 µM (≈ 2.51 µg/mL) | 12.4 µM (≈ 3.98 µg/mL) |  |  |  |  | O=C(Nc1ncc([N+](=O)[O-])s1)c1ccc(-c2ccoc2)s1 [Analogue 83, 5-(Furan-3-yl)-N-(5-nitrothiazol-2-yl)thiophene-2-carboxamide] |  |  |
| 3 µM (≈ 1.01 µg/mL) | 94.8 µM (≈ 32 µg/mL) |  |  |  |  | O=C(Nc1ncc([N+](=O)[O-])s1)c1ccc(-c2ccsc2)s1 [Analogue 82, N-(5-Nitrothiazol-2-yl)-2,3′-bithiophene-5-carboxamide] |  |  |
| 2.8 µM (≈ 1.11 µg/mL) | 20.2 µM (≈ 8.02 µg/mL) |  |  |  |  | O=C(Nc1ncc([N+](=O)[O-])s1)c1cc(Br)c(Br)o1 [Analogue 63, 4,5-Dibromo-N-(5-nitrothiazol-2-yl)furan-2-carboxamide] |  |  |
| 2.4 µM (≈ 0.757 µg/mL) | 102 µM (≈ 32 µg/mL) |  |  |  |  | O=C(Nc1ncc([N+](=O)[O-])s1)c1ccc(-c2ccccc2)o1 [Analogue 65, N-(5-Nitrothiazol-2-yl)-5-phenylfuran-2-carboxamide] |  |  |

Continued, compound first:

| SMILES | MIC [1] | MIC [2] | PFOR Inhibition [3] | MIC [4] | MIC [6] | MIC [7] | CC50 at 48 h ([5]; human foreskin cells) | CC50 at 48 h [5] |
| --- | --- | --- | --- | --- | --- | --- | --- | --- |
| CCCCCC(=O)Nc1ncc([N+](=O)[O-])s1 [Analogue 50, N-(5-Nitrothiazol-2-yl)hexanamide] | 0.5 µM (≈ 0.122 µg/mL) | 2.1 µM (≈ 0.511 µg/mL) | 64 ± 6 ^b % | 8.2 µM (≈ 1.99 µg/mL) | 132 µM (≈ 32 µg/mL) |  | > 65.8 µM |  |
| O=C(Nc1ncc([N+](=O)[O-])s1)c1cccc([N+](=O)[O-])c1 [Analogue 26, 3-Nitro-N-(5-nitrothiazol-2-yl)benzamide] | 1.3 µM (≈ 0.383 µg/mL) | 27.2 µM (≈ 8 µg/mL) |  |  | 10.2 µM (≈ 3 µg/mL) | 10.2 µM (≈ 3 µg/mL) |  | 27.2 µM |
| O=C(Nc1ncc([N+](=O)[O-])s1)c1ccc(F)cc1 [Analogue 8, 4-Fluoro-N-(5-nitrothiazol-2-yl)benzamide] | 0.9 µM (≈ 0.241 µg/mL) | 2.8 µM (≈ 0.748 µg/mL) | 85 ^b % | 3.3 µM (≈ 0.882 µg/mL) |  |  | 29.9 µM |  |
| O=C(Nc1ncc([N+](=O)[O-])s1)c1ccc([N+](=O)[O-])o1 [Analogue 64, 5-Nitro-N-(5-nitrothiazol-2-yl)furan-2-carboxamide] | 21.1 µM (≈ 6 µg/mL) | 7 µM (≈ 1.99 µg/mL) |  |  | 113 µM (≈ 32 µg/mL) | 28.1 µM (≈ 7.99 µg/mL) | > 56.3 µM |  |
| O=C(Nc1ncc([N+](=O)[O-])s1)c1cc2cc([N+](=O)[O-])ccc2o1 [Analogue 73, 5-Nitro-N-(5-nitrothiazol-2-yl)benzofuran-2-carboxamide] | 4.5 µM (≈ 1.5 µg/mL) | 4.5 µM (≈ 1.5 µg/mL) |  |  |  |  |  |  |
| CC(=O)Nc1ncc([N+](=O)[O-])s1 [Analogue 48, N-(5-Nitrothiazol-2-yl)acetamide] | 0.7 µM (≈ 0.131 µg/mL) | 10.7 µM (≈ 2 µg/mL) |  |  | 171 µM (≈ 32 µg/mL) | 21.4 µM (≈ 4.01 µg/mL) | > 85.5 µM |  |
| O=C(Nc1ncc([N+](=O)[O-])s1)c1cccc(OC(F)(F)F)c1 [Analogue 31, N-(5-Nitrothiazol-2-yl)-3-(trifluoromethoxy)benzamide] | 1.1 µM (≈ 0.367 µg/mL) | 9 µM (≈ 3 µg/mL) |  |  | 6 µM (≈ 2 µg/mL) | 12 µM (≈ 4 µg/mL) | > 48 µM |  |
| COc1cccc(C(=O)Nc2ncc([N+](=O)[O-])s2)c1 [Analogue 29, 3-Methoxy-N-(5-nitrothiazol-2-yl)benzamide] | 1.3 µM (≈ 0.363 µg/mL) | 7.2 µM (≈ 2.01 µg/mL) |  |  |  |  |  |  |
| O=C(Nc1ncc([N+](=O)[O-])s1)c1sc2ccccc2c1Cl [Analogue 85, 3-Chloro-N-(5-nitrothiazol-2-yl)benzo[b]thiophene-2-carboxamide] |  |  |  |  |  |  | > 47.1 µM |  |
| O=C(Nc1ncc([N+](=O)[O-])s1)c1ccc([N+](=O)[O-])cc1 [Analogue 27, 4-Nitro-N-(5-nitrothiazol-2-yl)benzamide] | 1.3 µM (≈ 0.383 µg/mL) | 13.6 µM (≈ 4 µg/mL) |  |  |  |  |  |  |
| CCCCCCCCCC(=O)Nc1ncc([N+](=O)[O-])s1 [Analogue 52, N-(5-Nitrothiazol-2-yl)decanamide] | 0.8 µM (≈ 0.24 µg/mL) | 107 µM (≈ 32 µg/mL) |  |  |  |  |  |  |
| O=C(CCc1ccccc1)Nc1ncc([N+](=O)[O-])s1 [Analogue 44, N-(5-Nitrothiazol-2-yl)-3-phenylpropanamide] | 21.6 µM (≈ 5.99 µg/mL) | 1.8 µM (≈ 0.499 µg/mL) |  |  |  |  |  |  |
| CCCC(=O)Nc1ncc([N+](=O)[O-])s1 [Analogue 49, N-(5-Nitrothiazol-2-yl)butyramide] | 3.5 µM (≈ 0.753 µg/mL) | 13.9 µM (≈ 2.99 µg/mL) |  |  |  |  |  |  |
| O=C(Nc1ncc([N+](=O)[O-])s1)c1cccc(C(F)(F)F)c1Cl [Analogue 40, 2-Chloro-N-(5-nitrothiazol-2-yl)-3-(trifluoromethyl)benzamide] | 0.9 µM (≈ 0.317 µg/mL) |  |  |  | 11.4 µM (≈ 4.01 µg/mL) | 11.4 µM (≈ 4.01 µg/mL) | > 45.5 µM |  |
| O=C(Nc1ncc([N+](=O)[O-])s1)c1ccc(F)c(F)c1 [Analogue 10, 3,4-Difluoro-N-(5-nitrothiazol-2-yl)benzamide] | 1.8 µM (≈ 0.513 µg/mL) | 5.3 µM (≈ 1.51 µg/mL) |  |  |  |  |  |  |
| O=C(Nc1ncc([N+](=O)[O-])s1)c1ccc(F)cc1C(F)(F)F [Analogue 35, 4-Fluoro-N-(5-nitrothiazol-2-yl)-2-(trifluoromethyl)benzamide] | 3.4 µM (≈ 1.14 µg/mL) | 23.9 µM (≈ 8.01 µg/mL) |  |  |  |  |  |  |
